We go through 52 substances from article PMC4865845, “A human genome-wide loss-of-function screen identifies effective chikungunya antiviral drugs” (Nature Communications, 2016).

The data set deals with CHIKV. In kind it is cell-based, chikungunya virus.
In turn, “Hs_CAB39L_2 (GCCAATGTCTTTGGACTGTAA; chemistry not given here)” gave a Score_si1 of 2.37.

Substance “s12381 (sense AGGCTCAGATCGACCAATA; chemistry not given here)” gave a Score_si3 of 0.71.

Take “s31191 (GATAATCAGTTCAACTAAA; chemistry not given here)”: the Score_si2 was 1.84.

For “s27640 (sense TGAAAAACGTAGAAATGAA; chemistry not given here)”, the Score_si2 was 1.74.

The substance “s12471 (sense CTTCTGTACCCATCAGTAA; chemistry not given here)” showed a Score_si3 of 1.63.

For the substance “s3145 (GACCCTTACCTGGAAGTTT; chemistry not given here)”, the Score_si2 is recorded as 0.19.

In turn, “s25039 (sense CAAATTTCCTGTTAATCGA; chemistry not given here) [reference compound]” came in with a Score_si3 of -0.41.

“s27642 (sense GCATGATGTTCGTCCGCAA; chemistry not given here)” came in with a Score_si4 of 1.26.

“Hs_PTBP1_2 (sense ATGGTATGAGTGTAATCTAAA; chemistry not given here) [reference compound]”: the Score_si1 is on record as -1.35.

“s32489 (GGAACAAGCTGTGATCCCA; chemistry not given here)” displayed a Score_si1 of 1.66.

“s38699 (CCAGGAACTATGACACGTA; chemistry not given here)” registered a Score_si2 of 0.75.

In turn, “Hs_GNB2L1_5 (sense TTGGCACACGCTAGAAGTTTA; chemistry not given here)” had a Score_si4 of 1.27.

The substance “Hs_MGC21830_1 (CCGGAGACAGCGGCTGATTTA; chemistry not given here) [reference compound]” gave a Score_si1 of -1.05.

On to “s19038 (sense GGAATATTCTTCAGCTACA; chemistry not given here)”, for which the Score_si3 is 1.51.

Turning to “Hs_C14orf160_1 (AAAGATTTGAATTATAAATAA; chemistry not given here) [reference compound]”, the Score_si3 is on record as -1.03.

The substance “s195938 (sense ATTTATCTCTGCATCGACA; chemistry not given here) [reference compound]” returned a Score_si3 of -0.51.

For “Hs_GCN1L1_2 (sense CAGGTTCAGCTGGAATGTGAA; chemistry not given here)”, the Score_si1 is on record as 2.09.

For the substance “Hs_SYMPK_2 (sense CAGCCTGGTGACACAGTTCAA; chemistry not given here)”, the Score_si2 came to 1.86.

Substance “Hs_UMPS_2 (CAGGAGAAACCTGTTTAATCA; chemistry not given here)” gave a Score_si1 of 3.14.

The substance “Hs_PPIL2_1 (CAGGGACAGCCTATTTATACA; chemistry not given here)” returned a Score_si4 of 0.92.

The substance “s1522 (sense GGATCAAGCTGCCCATCTA; chemistry not given here)” displayed a Score_si2 of 1.17.

“s21554 (sense CAGTATTGGTTATGAGTCT; chemistry not given here)” had a Score_si4 of 0.67.

Consider “Hs_P4HB_2 (CTATTTCACAATCGAATTGAA; chemistry not given here)”, for which the Score_si3 amounted to 1.09.

On to “s3163 (CTATCTTGGGTTTACCGTA; chemistry not given here)”, for which the Score_si2 was 1.54.

“Hs_CRSP8_1 (sense AACGAGAATGTCTACACAGAA; chemistry not given here) [reference compound]” yielded a Score_si1 of -2.6.

On to “s5295 (sense CGAGGTCATTGTGCATGAA; chemistry not given here)”, for which the Score_si4 amounted to 0.77.

“Hs_C14orf160_2 (ATGGAGTTACTGAAATGTATA; chemistry not given here) [reference compound]” returned a Score_si2 of -1.06.

“s12109 (sense CAGCCCTTGTTCTCATCAA; chemistry not given here)” showed a Score_si3 of 1.16.

On to “Hs_CNOT1_2 (sense CCAAGTTTGAATTTCAAGGAA; chemistry not given here)”, for which the Score_si1 stood at 2.81.

Regarding “Hs_NRD1_1 (CAGGGTGAAGCCACTTCATTA; chemistry not given here)”, the Score_si3 was determined as 1.32.

“Hs_ATF1_7 (CCAATAAATTCTAAATTACAA; chemistry not given here) [reference compound]” registered a Score_si2 of -1.38.

For “Hs_UIP1_3 (CTCGAGGGTCTGTATATCACA; chemistry not given here) [reference compound]”, the Score_si4 was 0.1.

Regarding “s26228 (sense GAACCTCACTGAGCCTTGA; chemistry not given here)”, the Score_si2 was 0.75.

Regarding “s33488 (CCACCTAGCTTGTAACGAA; chemistry not given here)”, the Score_si4 was determined as 1.58.

Consider “Hs_HMGA1L4_1 (sense AAGCCTCAGCTCAAACTCAAA; chemistry not given here)”, for which the Score_si1 amounted to 2.38.

As for “Hs_MAP3K14_5 (CACATGCATGTGACTCCTCAA; chemistry not given here)”, the Score_si4 is listed as 0.74.

Turning to “Hs_POLR1A_1 (AAGGTTGATGACTACAGTCAA; chemistry not given here)”, the Score_si1 came to 1.93.

“Hs_PDLIM5_5 (CAGCAGGGAAACGAACTCCGA; chemistry not given here)”: the Score_si2 amounted to 1.07.

“Hs_GPS1_3 (sense CAAGTGGGCGGTGTCCATTAA; chemistry not given here)” displayed a Score_si3 of 1.75.

For “Hs_CRSP7_1 (sense TACGGTTAACTTGGACGGGCA; chemistry not given here) [reference compound]”, the Score_si2 is reported as -1.45.

Take “s19990 (sense GGCTCTGACTACAAACTGA; chemistry not given here)”: the Score_si3 is reported as 0.89.

Substance “Hs_EIF2B5_2 (CAAAGTGAAGATGAAAGGTTA; chemistry not given here)” displayed a Score_si1 of 1.62.

For the substance “Hs_ZZZ3_1 (CAGCCTGATGGGAACACTAAA; chemistry not given here) [reference compound]”, the Score_si1 is given as -2.9.

Consider “Hs_FLJ31164_3 (sense GAAGCTGTTGATAGTATTGAA; chemistry not given here)”, for which the Score_si1 turned out to be 1.5.

In turn, “Hs_DKFZP564C186_1 (AAGGATGAGGACAGGAAGCAA; chemistry not given here)” returned a Score_si1 of 2.71.

Substance “s14705 (sense GCAGTTGAATTATCACAGT; chemistry not given here)” returned a Score_si2 of 1.97.

As to “Hs_FTSJ2_2 (sense CAGAATGTAAGGATCATCAAA; chemistry not given here)”, the Score_si3 worked out at 1.86.

In the case of “s10394 (GCTTTATGCTGCTAAGGCA; chemistry not given here)”, the Score_si4 was 1.23.

The substance “Hs_DKFZp547E052_2 (CAGGAGATAGGACATCATTTA; chemistry not given here)” had a Score_si1 of 2.29.

For “Hs_ASH2L_3 (TTGGAACACCCGTTTAACAAA; chemistry not given here)”, the Score_si1 is 1.11.

“s3112 (GGATGAGATTCTAGACTTT; chemistry not given here)”: the Score_si3 is listed as 1.86.

In turn, “Hs_FBXO42_3 (CAGGCTGGGATCAAATCTCCA; chemistry not given here)” showed a Score_si1 of 2.82.
